Experimental data: patent US8486931B2, “Substituted oxindole compounds” (Abbott GmbH & Co. KG, priority 2007, dated 2013)
pKi: −log10 of the molar value.

target: T1, human vasopressin V1b receptor (Homo sapiens, UniProt P47901); assay: Vasopressin V1b receptor binding assay; details: membranes from CHO-K1 cells with stably expressed human V1b receptors, 1.5 nM 3H-AVP displacement; with more than one stereogenic center: the diastereomer with stronger affinity
T1 construct: expressed in transfected cells; host or cells: CHO-K1 (cell line hV1b-3H2_CHO), membrane preparation
T1 sequence (P47901 1-424): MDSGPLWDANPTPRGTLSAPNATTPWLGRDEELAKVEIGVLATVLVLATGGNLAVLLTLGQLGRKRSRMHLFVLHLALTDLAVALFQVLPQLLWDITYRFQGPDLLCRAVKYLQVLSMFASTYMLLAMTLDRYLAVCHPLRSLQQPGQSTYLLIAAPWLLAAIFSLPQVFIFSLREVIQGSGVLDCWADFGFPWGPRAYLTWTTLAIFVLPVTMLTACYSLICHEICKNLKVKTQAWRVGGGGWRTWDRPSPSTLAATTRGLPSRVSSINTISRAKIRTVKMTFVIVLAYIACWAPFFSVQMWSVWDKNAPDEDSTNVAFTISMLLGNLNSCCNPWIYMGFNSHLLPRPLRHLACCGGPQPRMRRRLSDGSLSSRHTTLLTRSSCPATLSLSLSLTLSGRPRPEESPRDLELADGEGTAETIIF
Method: Such compounds can be investigated in suitable assays which establish the affinity to a receptor, with the affinity constant Ki represening a measure of the potency of the compounds and a smaller value representing a larger potency. The compounds of the invention were tested in the following receptor binding assay for their affinity for the V1 b receptor.
Vasopressin V1 b Receptor Binding Assay:
The test substances were dissolved in a concentration of 10^−2 M in DMSO (dimethyl sulfoxide) and further diluted to 5×10^−4 M to 5×10^−9 M in DMSO. This series of DMSO predilutions was diluted 1:10 with assay buffer. The substance concentration was again diluted 1:5 in the assay mixture (2% DMSO in the mixture).
The membrane pellet was again homogenized and centrifuged as described and then taken up in 50 mM Tris-HCl, pH 7.4, homogenized and stored in aliquots frozen in liquid nitrogen at −190° C.
The incubation buffer was: 50 mM Tris, 10 mM MgCl2, 0.1% BSA, pH 7.4.
The nonspecific binding was determined with 1 μM AVP (Bachem #H1780). All determinations were carried out as triplicate determinations. After incubation (60 minutes at room temperature), the free radioligand was removed by vacuum filtration (Skatron cell harvester 7000) through Whatman GF/B glass fiber filter mats, and the filters were transferred into scintillation vials. The liquid scintillation measurement took place in a Tricarb model 2000 or 2200CA instrument (Packard). Conversion of the measured cpm into dpm was carried out with the aid of a standard quench series.
The binding parameters were calculated by nonlinear regression in SAS.
The above assay was used to measure the affinities of the compounds of the invention for the human vasopressin V1 b receptor and to determine with affinity constants (Ki).

| SMILES | pKi |
| --- | --- |
| COc1ccc(OC)c(C2(N3CCN(c4ccncc4)CC3)C(=O)N(S(=O)(=O)c3cccc4c(C)ccnc34)c3ccc(C#N)cc32)c1 (racemic) [Example 50, (±)-5-Cyano-3-(2,5-dimethoxyphenyl)-1-(4-methylquinoline-8-sulfonyl)-3-(4-pyridin-4-yl-piperazin-1-yl)-2,3-dihydro-1H-indol-2-one] | 7.30 to 8.00 |
| CCOc1ccc(OC)cc1C1(N2CCN(c3ccnc(C)c3)CC2)C(=O)N(S(=O)(=O)c2ccc(C)cn2)c2ccc(C#N)cc21 (racemic) [Example 52, (±)-5-Cyano-3-(2-ethoxy-5-methoxyphenyl)-1-(5-methylpyridine-2-sulfonyl)-3-[4-(2-methylpyridin-4-yl)piperazin-1-yl]-2,3-dihydro-1H-indol-2-one] | 7.30 to 8.00 |
| CCOc1ccc(OC)cc1C1(N2CCN(c3ccnc(C)c3)CC2)C(=O)N(S(=O)(=O)c2ccc(Cl)c3cccnc23)c2ccc(C#N)cc21 (racemic) [Example 53, (±)-5-Cyano-1-(5-chloroquinoline-8-sulfonyl)-3-(2-ethoxy-5-methoxyphenyl)-3-[4-(2-methylpyridin-4-yl)piperazin-1-yl]-2,3-dihydro-1H-indol-2-one] | 7.30 to 8.00 |
| CCOc1ccccc1C1(N2CCN(c3ccnc(CC)c3)CC2)C(=O)N(S(=O)(=O)c2cccc3cccnc23)c2ccc(C#N)cc21 (racemic) [Example 56, (±)-5-Cyano-3-(2-ethoxyphenyl)-3-[4-(2-ethylpyridin-4-yl)piperazin-1-yl]-1-(quinoline-8-sulfonyl)-2,3-dihydro-1H-indol-2-one] | 7.30 to 8.00 |
| CCOc1ccc(OC)cc1C1(N2CCCN(c3ccnc(C)c3)CC2)C(=O)N(S(=O)(=O)c2ccc(OC)cn2)c2ccc(C#N)cc21 (racemic) [Example 65, (±)-5-Cyano-3-(2-ethoxy-5-methoxyphenyl)-1-(5-methoxypyridine-2-sulfonyl)-3-[4-(2-methylpyridin-4-yl)-[1,4]diazepan-1-yl]-2,3-dihydro-1H-indol-2-one] | > 8.00 |

Second part, the compound after the results:

| pKi | SMILES |
| --- | --- |
| > 8.00 | COc1ccc(C)cc1C1(N2CCN(c3ccncc3)CC2)C(=O)N(S(=O)(=O)c2cccc3cccnc23)c2ccc(C#N)cc21 (racemic) [Example 51, (±)-5-Cyano-3-(2-methoxy-5-methylphenyl)-3-(4-pyridin-4-ylpiperazin-1-yl)-1-quinoline-8-sulfonyl)-2,3-dihydro-1H-indol-2-one] |
| > 8.00 | CCOc1ccc(OC)cc1C1(N2CCN(c3ccnc(C)c3)CC2)C(=O)N(S(=O)(=O)c2cccc3cccnc23)c2ccc(C#N)cc21 (racemic) [Example 54, (±)-5-Cyano-3-(2-ethoxy-5-methoxyphenyl)-3-[4-(2-methylpyridin-4-yl)piperazin-1-yl]-1-(quinoline-8-sulfonyl)-2,3-dihydro-1H-indol-2-one] |
| > 8.00 | CCOc1ccc(OC)cc1C1(N2CCN(c3ccnc(C(C)C)c3)CC2)C(=O)N(S(=O)(=O)c2cccc3cccnc23)c2ccc(C#N)cc21 (racemic) [Example 57, (±)-5-Cyano-3-(2-ethoxy-5-methoxyphenyl)-3-[4-(2-isopropylpyridin-4-yl)piperazin-1-yl]-1-(quinoline-8-sulfonyl)-2,3-dihydro-1H-indol-2-one] |
| > 8.00 | COc1ccc(OC)c(C2(N3CCN(c4ccncc4)CC3)C(=O)N(S(=O)(=O)c3cccc4cccnc34)c3ccc(OC)cc32)c1 (racemic) [Example 59, (±)-3-(2,5-Dimethoxyphenyl)-5-methoxy-3-(4-pyridin-4-ylpiperazin-1-yl)-1-(quinoline-8-sulfonyl)-1,3-dihydroindol-2-one] |
| > 8.00 | CCOc1ccc(OC)cc1C1(N2CCCN(c3ccnc(C)c3)CC2)C(=O)N(S(=O)(=O)c2cccc3cccnc23)c2ccc(C#N)cc21 (racemic) [Example 62, (±)-5-Cyano-3-(2-ethoxy-5-methoxyphenyl)-3-[4-(2-methylpyridin-4-yl)-[1,4]diazepan-1-yl]-1-(quinoline-8-sulfonyl)-2,3-dihydro-1H-indol-2-one] |
